Measured values published in the NIST ThermoML archive (doi:10.1016/j.jct.2005.09.003).
Numbers after ± are expanded uncertainties.

Assay: xn = mol fraction of the nth substance listed
Settings: Liquid, x1 = 1

CCCCCCCC [octane] + CCCCCCCl
mass density (298.15 K, 100 kPa): 698.64 ± 0.61 kg/m3
mass density (298.15 K, 2130 kPa): 700.14 ± 0.71 kg/m3
mass density (298.15 K, 4150 kPa): 701.87 ± 0.8 kg/m3
mass density (298.15 K, 6180 kPa): 703.56 ± 0.88 kg/m3
mass density (298.15 K, 8210 kPa): 705.17 ± 0.97 kg/m3
mass density (298.15 K, 10230 kPa): 706.78 ± 1.1 kg/m3
mass density (298.15 K, 11250 kPa): 707.58 ± 1.1 kg/m3
mass density (298.15 K, 12260 kPa): 708.37 ± 1.1 kg/m3
mass density (298.15 K, 14290 kPa): 709.9 ± 1.2 kg/m3
mass density (298.15 K, 16310 kPa): 711.41 ± 1.3 kg/m3
mass density (298.15 K, 18340 kPa): 712.9 ± 1.4 kg/m3
mass density (298.15 K, 20370 kPa): 714.36 ± 1.5 kg/m3
mass density (298.15 K, 22390 kPa): 715.78 ± 1.6 kg/m3
mass density (298.15 K, 24420 kPa): 717.18 ± 1.6 kg/m3
mass density (298.15 K, 26450 kPa): 718.56 ± 1.7 kg/m3
mass density (298.15 K, 28470 kPa): 719.9 ± 1.8 kg/m3
mass density (298.15 K, 29490 kPa): 720.57 ± 1.8 kg/m3
mass density (298.15 K, 30500 kPa): 721.22 ± 1.9 kg/m3
mass density (298.15 K, 32530 kPa): 722.53 ± 2 kg/m3
mass density (298.15 K, 34550 kPa): 723.82 ± 2 kg/m3
mass density (298.15 K, 36580 kPa): 725.06 ± 2.1 kg/m3
mass density (298.15 K, 38600 kPa): 726.32 ± 2.2 kg/m3
mass density (298.15 K, 39620 kPa): 726.94 ± 2.2 kg/m3
mass density (308.15 K, 100 kPa): 690.43 ± 0.63 kg/m3
mass density (308.15 K, 2130 kPa): 692.18 ± 0.73 kg/m3
mass density (308.15 K, 4150 kPa): 694 ± 0.82 kg/m3
mass density (308.15 K, 6180 kPa): 695.79 ± 0.9 kg/m3
mass density (308.15 K, 8210 kPa): 697.53 ± 0.99 kg/m3
mass density (308.15 K, 10230 kPa): 699.24 ± 1.1 kg/m3
mass density (308.15 K, 11250 kPa): 700.07 ± 1.1 kg/m3
mass density (308.15 K, 12260 kPa): 700.88 ± 1.2 kg/m3
mass density (308.15 K, 14290 kPa): 702.55 ± 1.2 kg/m3
mass density (308.15 K, 16310 kPa): 704.13 ± 1.3 kg/m3
mass density (308.15 K, 18340 kPa): 705.71 ± 1.4 kg/m3
mass density (308.15 K, 20370 kPa): 707.23 ± 1.5 kg/m3
mass density (308.15 K, 22390 kPa): 708.76 ± 1.6 kg/m3
mass density (308.15 K, 24420 kPa): 710.22 ± 1.7 kg/m3
mass density (308.15 K, 26450 kPa): 711.66 ± 1.8 kg/m3
mass density (308.15 K, 28470 kPa): 713.09 ± 1.8 kg/m3
mass density (308.15 K, 29490 kPa): 713.77 ± 1.9 kg/m3
mass density (308.15 K, 30500 kPa): 714.47 ± 1.9 kg/m3
mass density (308.15 K, 32530 kPa): 715.84 ± 2 kg/m3
mass density (308.15 K, 34550 kPa): 717.18 ± 2.1 kg/m3
mass density (308.15 K, 36580 kPa): 718.5 ± 2.2 kg/m3
mass density (308.15 K, 38600 kPa): 719.82 ± 2.2 kg/m3
mass density (308.15 K, 39620 kPa): 720.45 ± 2.3 kg/m3
mass density (318.15 K, 100 kPa): 682.47 ± 0.65 kg/m3
mass density (318.15 K, 2130 kPa): 684.48 ± 0.74 kg/m3
mass density (318.15 K, 4150 kPa): 686.45 ± 0.83 kg/m3
mass density (318.15 K, 6180 kPa): 688.29 ± 0.92 kg/m3
mass density (318.15 K, 8210 kPa): 690.17 ± 1 kg/m3
mass density (318.15 K, 10230 kPa): 691.97 ± 1.1 kg/m3
mass density (318.15 K, 11250 kPa): 692.85 ± 1.1 kg/m3
mass density (318.15 K, 12260 kPa): 693.77 ± 1.2 kg/m3
mass density (318.15 K, 14290 kPa): 695.49 ± 1.3 kg/m3
mass density (318.15 K, 16310 kPa): 697.2 ± 1.4 kg/m3
mass density (318.15 K, 18340 kPa): 698.86 ± 1.5 kg/m3
mass density (318.15 K, 20370 kPa): 700.47 ± 1.5 kg/m3
mass density (318.15 K, 22390 kPa): 702.07 ± 1.6 kg/m3
mass density (318.15 K, 24420 kPa): 703.61 ± 1.7 kg/m3
mass density (318.15 K, 26450 kPa): 705.13 ± 1.8 kg/m3
mass density (318.15 K, 28470 kPa): 706.66 ± 1.9 kg/m3
mass density (318.15 K, 29490 kPa): 707.38 ± 1.9 kg/m3
mass density (318.15 K, 30500 kPa): 708.13 ± 2 kg/m3
mass density (318.15 K, 32530 kPa): 709.54 ± 2 kg/m3
mass density (318.15 K, 34550 kPa): 710.96 ± 2.1 kg/m3
mass density (318.15 K, 36580 kPa): 712.33 ± 2.2 kg/m3
mass density (318.15 K, 38600 kPa): 713.68 ± 2.3 kg/m3
mass density (318.15 K, 39620 kPa): 714.38 ± 2.3 kg/m3
mass density (328.15 K, 100 kPa): 674.53 ± 0.66 kg/m3
mass density (328.15 K, 2130 kPa): 676.49 ± 0.76 kg/m3
mass density (328.15 K, 4150 kPa): 678.56 ± 0.85 kg/m3
mass density (328.15 K, 6180 kPa): 680.59 ± 0.95 kg/m3
mass density (328.15 K, 8210 kPa): 682.57 ± 1 kg/m3
mass density (328.15 K, 10230 kPa): 684.51 ± 1.1 kg/m3
mass density (328.15 K, 11250 kPa): 685.44 ± 1.2 kg/m3
mass density (328.15 K, 12260 kPa): 686.38 ± 1.2 kg/m3
mass density (328.15 K, 14290 kPa): 688.23 ± 1.3 kg/m3
mass density (328.15 K, 16310 kPa): 690.03 ± 1.4 kg/m3
mass density (328.15 K, 18340 kPa): 691.76 ± 1.5 kg/m3
mass density (328.15 K, 20370 kPa): 693.5 ± 1.6 kg/m3
mass density (328.15 K, 22390 kPa): 695.17 ± 1.7 kg/m3
mass density (328.15 K, 24420 kPa): 696.82 ± 1.8 kg/m3
mass density (328.15 K, 26450 kPa): 698.41 ± 1.8 kg/m3
mass density (328.15 K, 28470 kPa): 699.98 ± 1.9 kg/m3
mass density (328.15 K, 29490 kPa): 700.75 ± 2 kg/m3
mass density (328.15 K, 30500 kPa): 701.53 ± 2 kg/m3
mass density (328.15 K, 32530 kPa): 703.01 ± 2.1 kg/m3
mass density (328.15 K, 34550 kPa): 704.5 ± 2.2 kg/m3
mass density (328.15 K, 36580 kPa): 705.96 ± 2.2 kg/m3
mass density (328.15 K, 38600 kPa): 707.36 ± 2.3 kg/m3
mass density (328.15 K, 39620 kPa): 708.06 ± 2.4 kg/m3
